Data from ChEMBL document CHEMBL1201862, “PubChem BioAssay data set” (2004).
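Each compound was tested at five concentrations against cells in 96-well plates for 48 hours. The concentration for 50% growth inhibition is given as GI50.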 The source made the active and inactive calls. No stated cut-off is given here; in the data, active = GI50 up to about 1.1 µM and inactive = higher.

Legend:
Assay in all cases: growth of human tumour cells (NCI), 48 h
T47D = tested on: T47D
OVCAR-8 = tested on: OVCAR-8
KM12 = tested on: KM12
UACC-62 = tested on: UACC-62
NCI-H226 = tested on: NCI-H226
RPMI-8226 = tested on: RPMI-8226
OVCAR-3 = tested on: OVCAR-3
SK-OV-3 = tested on: SK-OV-3
EKVX = tested on: EKVX
SK-MEL-5 = tested on: SK-MEL-5
SNB-19 = tested on: SNB-19
MOLT-4 = tested on: MOLT-4
HCT-15 = tested on: HCT-15
BT-549 = tested on: BT-549
OVCAR-4 = tested on: OVCAR-4
IGROV-1 = tested on: IGROV-1
SNB-75 = tested on: SNB-75
SK-MEL-2 = tested on: SK-MEL-2
A549 = tested on: A549
U-251 = tested on: U-251
HCC 2998 = tested on: HCC 2998
MCF7 = tested on: MCF7
DU-145 = tested on: DU-145
SF-539 = tested on: SF-539
HOP-62 = tested on: HOP-62
UO-31 = tested on: UO-31
NCI-H460 = tested on: NCI-H460
HL-60 = tested on: HL-60
OVCAR-5 = tested on: OVCAR-5
SF-268 = tested on: SF-268
HCT-116 = tested on: HCT-116
UACC-257 = tested on: UACC-257
HOP-92 = tested on: HOP-92
Malme-3M = tested on: Malme-3M
MDA-MB-231 = tested on: MDA-MB-231
PC-3 = tested on: PC-3
A498 = tested on: A498
LOX IMVI = tested on: LOX IMVI
K562 = tested on: K562
CCRF-CEM = tested on: CCRF-CEM
SF-295 = tested on: SF-295
SN12C = tested on: SN12C
M14 = tested on: M14
SW-620 = tested on: SW-620
TK-10 = tested on: TK-10
MDA-MB-435 = tested on: MDA-MB-435
786-0 = tested on: 786-0
NCI-H23 = tested on: NCI-H23
NCI/ADR-RES = tested on: NCI/ADR-RES
SK-MEL-28 = tested on: SK-MEL-28
COLO 205 = tested on: COLO 205
RXF 393 = tested on: RXF 393
SR = tested on: SR
ACHN = tested on: ACHN
Hs-578T = tested on: Hs-578T
HT-29 = tested on: HT-29
NCI-H522 = tested on: NCI-H522
MDA-N = tested on: MDA-N
CAKI-1 = tested on: CAKI-1

For `CCCN(CCCCN1C(=O)c2ccccc2C1=O)CC1COc2ccccc2O1` (stereo not given), the GI50 (T47D) was 42.9 µM (inactive), the GI50 (OVCAR-8) was > 100 µM (inactive) and the GI50 (KM12) was > 100 µM (inactive). For the same compound, the GI50 (UACC-62) was > 100 µM (inactive), the GI50 (NCI-H226) was 53 µM (inactive) and the GI50 (RPMI-8226) was 26.4 µM (inactive). The GI50 (OVCAR-3) was > 100 µM (inactive), the GI50 (SK-OV-3) was > 100 µM (inactive) and the GI50 (EKVX) was > 100 µM (inactive). The GI50 (SK-MEL-5) was 28.6 µM (inactive), the GI50 (SNB-19) was > 100 µM (inactive) and the GI50 (MOLT-4) was 23.3 µM (inactive). For the same compound, the GI50 (HCT-15) was 52.2 µM, the GI50 (BT-549) was > 100 µM (inactive) and the GI50 (OVCAR-4) was > 100 µM (inactive). The GI50 (IGROV-1) was > 100 µM (inactive), the GI50 (SNB-75) was > 100 µM (inactive) and the GI50 (SK-MEL-2) was > 100 µM (inactive). The GI50 (A549) was > 100 µM (inactive), the GI50 (U-251) was 74 µM (inactive) and the GI50 (HCC 2998) was 83.2 µM (inactive). The GI50 (MCF7) was 53.1 µM (inactive), the GI50 (DU-145) was > 100 µM (inactive) and the GI50 (SF-539) was 83.2 µM (inactive). For the same compound, the GI50 (HOP-62) was > 100 µM (inactive), the GI50 (UO-31) was 51.9 µM (inactive) and the GI50 (NCI-H460) was 53.5 µM (inactive). For the same compound, the GI50 (HL-60) was 14.1 µM (inactive), the GI50 (OVCAR-5) was > 100 µM (inactive) and the GI50 (SF-268) was > 100 µM (inactive). The GI50 (HCT-116) was 59.4 µM (inactive), the GI50 (UACC-257) was 65.9 µM (inactive) and the GI50 (HOP-92) was 29.4 µM (inactive). For the same compound, the GI50 (Malme-3M) was > 100 µM (inactive), the GI50 (MDA-MB-231) was > 100 µM (inactive) and the GI50 (PC-3) was 51.9 µM (inactive). For the same compound, the GI50 (A498) was > 100 µM (inactive), the GI50 (LOX IMVI) was > 100 µM (inactive) and the GI50 (K562) was 42.1 µM (inactive). The GI50 (CCRF-CEM) was 25.8 µM (inactive), the GI50 (SF-295) was > 100 µM (inactive) and the GI50 (SN12C) was > 100 µM (inactive). The GI50 (M14) was > 100 µM (inactive), the GI50 (SW-620) was > 100 µM (inactive) and the GI50 (TK-10) was > 100 µM (inactive). For the same compound, the GI50 (MDA-MB-435) was > 100 µM (inactive), the GI50 (786-0) was > 100 µM (inactive) and the GI50 (NCI-H23) was 55.3 µM (inactive). For the same compound, the GI50 (NCI/ADR-RES) was 61.1 µM (inactive), the GI50 (SK-MEL-28) was 88.5 µM (inactive) and the GI50 (COLO 205) was 50.1 µM (inactive). For the same compound, the GI50 (RXF 393) was 94.4 µM (inactive), the GI50 (SR) was 25.1 µM (inactive) and the GI50 (ACHN) was > 100 µM (inactive). The GI50 (Hs-578T) was > 100 µM (inactive), the GI50 (HT-29) was 33.6 µM (inactive) and the GI50 (NCI-H522) was > 100 µM (inactive). The GI50 (MDA-N) was > 100 µM (inactive) and the GI50 (CAKI-1) was > 100 µM (inactive).
For `N#CC1(C#N)[C@@H]2CCC=C(Sc3ccccc3)[C@@H]21`, the GI50 (T47D) was 22.1 µM (inactive), the GI50 (OVCAR-8) was 16 µM (inactive) and the GI50 (KM12) was 14.9 µM (inactive). For the same compound, the GI50 (UACC-62) was 18.4 µM (inactive), the GI50 (NCI-H226) was 13.9 µM (inactive) and the GI50 (RPMI-8226) was 12.9 µM (inactive). The GI50 (OVCAR-3) was 17.2 µM (inactive), the GI50 (SK-OV-3) was 19.5 µM (inactive) and the GI50 (EKVX) was 18.5 µM (inactive). The GI50 (SK-MEL-5) was 13.9 µM (inactive), the GI50 (SNB-19) was 23.9 µM (inactive) and the GI50 (MOLT-4) was 14.5 µM (inactive). The GI50 (HCT-15) was 17.7 µM, the GI50 (BT-549) was 23 µM (inactive) and the GI50 (OVCAR-4) was 14.3 µM (inactive). The GI50 (IGROV-1) was 19.8 µM (inactive), the GI50 (SNB-75) was 20.9 µM (inactive) and the GI50 (SK-MEL-2) was 14.6 µM (inactive). For the same compound, the GI50 (A549) was 23.4 µM (inactive), the GI50 (U-251) was 16.1 µM (inactive) and the GI50 (HCC 2998) was 16.7 µM (inactive). The GI50 (MCF7) was 10.4 µM (inactive), the GI50 (DU-145) was 16 µM (inactive) and the GI50 (SF-539) was 15.5 µM (inactive). For the same compound, the GI50 (NCI-H460) was 19.5 µM (inactive), the GI50 (HL-60) was 8.59 µM (inactive) and the GI50 (OVCAR-5) was 17.8 µM (inactive). For the same compound, the GI50 (SF-268) was 20.1 µM (inactive), the GI50 (HCT-116) was 15.7 µM (inactive) and the GI50 (UACC-257) was 17.5 µM (inactive). For the same compound, the GI50 (HOP-92) was 14.9 µM (inactive), the GI50 (Malme-3M) was 16.9 µM (inactive) and the GI50 (MDA-MB-231) was 22.2 µM (inactive). For the same compound, the GI50 (PC-3) was 14.3 µM (inactive), the GI50 (A498) was 31.7 µM (inactive) and the GI50 (LOX IMVI) was 13.9 µM (inactive). For the same compound, the GI50 (K562) was 6.71 µM (inactive), the GI50 (CCRF-CEM) was 5.71 µM (inactive) and the GI50 (SF-295) was 16.5 µM (inactive). The GI50 (SN12C) was 16.4 µM (inactive), the GI50 (M14) was 13.2 µM (inactive) and the GI50 (SW-620) was 11.9 µM (inactive). The GI50 (TK-10) was 14.6 µM (inactive), the GI50 (MDA-MB-435) was 12.9 µM (inactive) and the GI50 (786-0) was 16.1 µM (inactive). For the same compound, the GI50 (NCI/ADR-RES) was 18.4 µM (inactive), the GI50 (SK-MEL-28) was 15 µM (inactive) and the GI50 (COLO 205) was 17.3 µM (inactive). For the same compound, the GI50 (RXF 393) was 13 µM (inactive), the GI50 (SR) was 13.1 µM (inactive) and the GI50 (ACHN) was 15.5 µM (inactive). For the same compound, the GI50 (Hs-578T) was > 100 µM (inactive), the GI50 (HT-29) was 18.6 µM (inactive) and the GI50 (NCI-H522) was 10.8 µM (inactive). For the same compound, the GI50 (MDA-N) was 13.9 µM (inactive) and the GI50 (CAKI-1) was 13.6 µM (inactive).
